Measurements published in patent US10632054B2, “Method for hair frizz reduction” (The Procter & Gamble Company, priority 2015, dated 2020).

Columns and labels:
[1] = Expert rating of hair switches for frizz, clean feel and greasy feel; conditions: 1% in leave-on composition
Procedure: Additional leave-on treatment compositions are prepared (Tables 1 and 2) according to the procedure described above, which are used to treat hair switches using the procedure described above (amount of 0.10 g of composition per g of hair). The switch is kept at high humidity (above 85%) for 2 hours. Then, ten experts are asked to rate each hair switch in terms of frizz, clean feel, and greasy feel, based on a 5 point scale, 5 being the highest and 1 being the lowest rating. Acceptable values are:
For frizz, less than 2 (lower number corresponds to less frizz);
For no greasy feel less than 3, (lower number corresponds to less greasy feel), and
For clean feel greater than 3 (higher number corresponds to cleaner feel).

[2] = Soaking treatment, moisture uptake by DVS; conditions: pH 4.2, 40 deg C., at 90% RH
Procedure: The Moisture Control Material is added into a 50:50 ethanol:water solvent at a concentration of 2% w/w and mixed until completely dissolved. The solution pH is adjusted with sodium hydroxide (50% w/w) to a final pH of 4.2. The soaking solution is kept at 40 deg C. for 2 hrs. until a uniform composition is obtained.
One hair switch of natural virgin brown hair is placed in 200 ml of this solution for 2 hours in an oven set at 40° C. After the 2-hour period, the hair is removed, air dried and then tested for moisture uptake using DVS. For the control experiment, a natural brown virgin hair switch of the same weight is placed in a 50:50 ethanol:water solvent and treated under identical conditions.
The % water reduction is calculated as follows: […]
Hair soaked in active solution of pH 4.2 for different interval of time from 10 min to 2 hrs at 40 deg C. Hair Switches were air dried and prepared for % water reduction measurement using DVS vs. control (no active).

[3] = Leave-on treatment, % water reduction by DVS in damaged hair; conditions: 10% propylene glycol
Procedure: An amount of 25-30 mg of hair with length of approximately 1 cm is weighed and hold for equilibration at 0% RH for 16 hours. After the 16-hour period, the RH is increased to 10% and maintained at this level for 6 hours. Then, the RH is increased by 10% after every 6 hours interval until it reaches 90% RH. The % water reduction is calculated as follows:
A=Amount of water absorbed by the hair treated with composition containing the Moisture Control Material

O=S(=O)(O)c1ccc(O)cc1 [4-Hydroxybenzenesulphonic acid]
Hair switch rating result in words (frizz, clean feel, greasy feel) [1]: provide frizz protection with clean feel and without greasy feel negative

CC(C)CCCCCCCCCCCCCCCOC(=O)CCCCCCCCCCCCCCC(C)C [Isostearyl isostearate]
Hair switch rating result in words (frizz, clean feel, greasy feel) [1]: provide frizz protection with clean feel and without greasy feel negative

O=C(O)c1ccccc1O [Salicylic acid]
Hair switch rating result in words (frizz, clean feel, greasy feel) [1]: provide frizz protection with clean feel and without greasy feel negative

O=C(OCCO)c1ccccc1O [2-Hydroxyethyl salicylate]
Hair switch rating result in words (frizz, clean feel, greasy feel) [1]: provide frizz protection with clean feel and without greasy feel negative

O=C(O)c1cc(Cl)ccc1O [5-Chlorosalicylic acid]
% water reduction vs. control ([2]; 10 min soaking): 9.6% | % water reduction vs. control ([2]; 20 mins soaking): 14.8% | % water reduction vs. control ([2]; 30 mins soaking): 19% | % water reduction vs. control ([2]; 1 hr soaking): 26% | % water reduction vs. control ([2]; 2 hr soaking): 30% | Hair switch rating result in words (frizz, clean feel, greasy feel) [1]: provide frizz protection with clean feel and without greasy feel negative | increase in % water reduction as measured by DVS versus without propylene glycol [3]: ~4 times

O=C(O)c1ccc(O)cc1O [2,4-Dihydroxybenzoic acid]
Hair switch rating result in words (frizz, clean feel, greasy feel) [1]: provide frizz protection with clean feel and without greasy feel negative

CCCCCCCCC(CO)CCCCCC (stereo not shown) [2-Hexyl-1-decanol]
Hair switch rating result in words (frizz, clean feel, greasy feel) [1]: provide frizz protection with clean feel and without greasy feel negative
